Test results: patent US8883841B2, “Oncogenic ras-specific cytotoxic compound and methods of use thereof” (The Board of Regents of the University of Texas System, priority 2005, dated 2014)
pIC50: −log10 of the molar value. Read-outs that look alike come from different tables or passages of the source.

Tests used:
H23 = assay: Cell viability, H23 lung cancer cells; type: cell-based, human; details: Homo sapiens, NCI-H23; H23, Lung; read-out: IC50 (−LogM) (converted)
AsPC-1 = assay: Cell viability, AsPC-1 pancreatic cancer cells; type: cell-based, human; details: Homo sapiens; ASPC1, Pancrease; read-out: IC50 (−LogM) (converted)
Ovca429 = assay: Cell viability, Ovca429 ovary cancer cells; type: cell-based
NCI-H460 = assay: NCI in-vitro testing, NCI-H460 (Non-Small Cell Lung Cancer)
M14 = assay: NCI in-vitro testing, M14 (Melanoma)
A549CK8 = assay: Cell viability, A549CK8 lung cancer cells; type: cell-based, human; details: Homo sapiens; A549CK8, Lung; read-out: IC50 (−LogM) (converted)
A549 cells = assay: Cell viability, A549 lung cancer cells; type: cell-based, human; details: Homo sapiens; A549, Lung; read-out: IC50 (−LogM) (converted)
NCI/ADR-RES = assay: NCI in-vitro testing, NCI/ADR-RES (Breast Cancer)
H1395 = assay: Cell viability, H1395 lung cancer cells; type: cell-based, human; details: Homo sapiens, NCI-H1395; H1395, Lung; read-out: IC50 (−LogM) (converted)
miapac = assay: Cell viability, miapac pancreatic cancer cells; type: cell-based, human; details: Homo sapiens, Pancreatic cancer cell; miapac, Pancrease; read-out: IC50 (−LogM) (converted)
SKOV3 = assay: Cell viability, SKOV3 ovary cancer cells; type: cell-based; details: Homo sapiens, SK-OV-3
SF-539 = assay: NCI in-vitro testing, SF-539 (CNS Cancer)
Ovcar3 = assay: Cell viability, Ovcar3 ovary cancer cells; type: cell-based; details: Homo sapiens, OVCAR-3
H2009 = assay: Cell viability, H2009 lung cancer cells; type: cell-based, human; details: Homo sapiens, NCI-H2009; H2009, Lung; read-out: IC50 (−LogM) (converted)
UACC-62 = assay: NCI in-vitro testing, UACC-62 (Melanoma)
Heb44 = assay: Cell viability, Heb44 kidney cells; type: cell-based
HKE3 = assay: Cell viability, HKE3 colon cancer cells; type: cell-based, human; details: Homo sapiens, HKE3, Colon, read-out: IC50 (−LogM) (converted)
H2122 = assay: Cell viability, H2122 lung cancer cells; type: cell-based, human; details: Homo sapiens, NCI-H2122; H2122, Lung; read-out: IC50 (−LogM) (converted)
ACHN = assay: NCI in-vitro testing, ACHN (Renal Cancer)
MCF7 = assay: NCI in-vitro testing, MCF7 (Breast Cancer)
H226B cells = assay: Cell viability, H226B lung cancer cells; type: cell-based, human; details: Homo sapiens, H226B, Lung, read-out: IC50 (−LogM) (converted)
Hct116 = assay: Cell viability, Hct116 colon cancer cells; type: cell-based, human; details: Homo sapiens, HCT-116; Hct116, Colon; read-out: IC50 (−LogM) (converted)
Heb46 = assay: Cell viability, Heb46 kidney cells; type: cell-based
DLD1 = assay: Cell viability, DLD1 colon cancer cells; type: cell-based, human; details: Homo sapiens, DLD-1; DLD1, Colon; read-out: IC50 (−LogM) (converted)
H1933 = assay: Cell viability, H1933 lung cancer cells; type: cell-based, human; details: Homo sapiens; H1933, Lung; read-out: IC50 (−LogM) (converted)
Capanc-1 = assay: Cell viability, Capanc-1 pancreatic cancer cells; type: cell-based, human; details: Homo sapiens, Pancreatic cancer cell; capanc1, Pancrease; read-out: IC50 (−LogM) (converted)
H1299 cells = assay: Cell viability, H1299 lung cancer cells; type: cell-based, human; details: Homo sapiens, NCI-H1299; h1299, Lung; read-out: IC50 (−LogM) (converted)
CT116P53 = assay: Cell viability, CT116P53 colon cancer cells; type: cell-based, human; details: Homo sapiens; CT116P53, Colon; read-out: IC50 (−LogM) (converted)
KM12 = assay: NCI in-vitro testing, KM12 (Colon Cancer)
[1] = Homo sapiens, read-out: Log10 GI50 (converted)

For OCc1cn(Cc2ccc(Cl)cc2)c2ccccc12 [Oncrasin K060, 1H-Indole-3-methanol, 1-[(4-chlorophenyl)methyl]-], the IC50 (H23) was 15.8 µM, the IC50 (AsPC-1) was 2 µM and the pIC50 (Ovca429) was 4.50. The TGI (NCI-H460) was 3.79E−5 Molar, the GI50 (NCI-H460; Homo sapiens, NCI-H460) was 0.0888 µM and the CC50 (NCI-H460; Homo sapiens, NCI-H460, read-out: LC50) was greater than 100 µM. The GI50 (NCI-H460; Homo sapiens, NCI-H460, read-out: Log10 GI50 (converted)) was 0.0891 µM, the “Percent Growth” value (NCI-H460; Log10 Concentration −4.0 Molar) was −9% and the “Percent Growth” value (NCI-H460; Log10 Concentration −5.0 Molar) was 13%. The “Percent Growth” value (NCI-H460; Log10 Concentration −6.0 Molar) was 20%, the “Percent Growth” value (NCI-H460; Log10 Concentration −7.0 Molar) was 48% and the “Percent Growth” value (NCI-H460; Log10 Concentration −8.0 Molar) was 79%. The GI50 (M14; Homo sapiens, M14) was 6.16 µM, the CC50 (M14; Homo sapiens, M14, read-out: LC50) was 55.9 µM and the GI50 (M14; Homo sapiens, M14, read-out: Log10 GI50 (converted)) was 5.13 µM. For the same compound, the TGI (M14; M14) was 2.03E−5 Molar, the “Percent Growth” value (M14; M14, Log10 Concentration −4.0 Molar) was −79% and the “Percent Growth” value (M14; M14, Log10 Concentration −5.0 Molar) was 35%. For the same compound, the “Percent Growth” value (M14; M14, Log10 Concentration −6.0 Molar) was 87%, the “Percent Growth” value (M14; M14, Log10 Concentration −7.0 Molar) was 94% and the “Percent Growth” value (M14; M14, Log10 Concentration −8.0 Molar) was 95%. The IC50 (A549CK8) was 1 µM, the IC50 (A549 cells) was 2 µM and the TGI (NCI/ADR-RES) was 3.32E−5 Molar. The GI50 (NCI/ADR-RES; Homo sapiens) was 9.22 µM, the CC50 (NCI/ADR-RES; Homo sapiens, read-out: LC50) was greater than 100 µM and the GI50 (NCI/ADR-RES; [1]) was 9.12 µM. For the same compound, the “Percent Growth” value (NCI/ADR-RES; Log10 Concentration −4.0 Molar) was −45%, the “Percent Growth” value (NCI/ADR-RES; Log10 Concentration −5.0 Molar) was 49% and the “Percent Growth” value (NCI/ADR-RES; Log10 Concentration −6.0 Molar) was 86%. The “Percent Growth” value (NCI/ADR-RES; Log10 Concentration −7.0 Molar) was 94%, the “Percent Growth” value (NCI/ADR-RES; Log10 Concentration −8.0 Molar) was 103% and the IC50 (H1395) was 20 µM. For the same compound, the IC50 (miapac) was less than 31.6 µM, the pIC50 (SKOV3) was 6.20 and the GI50 (SF-539; Homo sapiens, SF-539) was 10.9 µM. The CC50 (SF-539; Homo sapiens, SF-539, read-out: LC50) was 60 µM, the GI50 (SF-539; Homo sapiens, SF-539, read-out: Log10 GI50 (converted)) was 11 µM and the TGI (SF-539; SF-539) was 2.70E−5 Molar. The “Percent Growth” value (SF-539; SF-539, Log10 Concentration −4.0 Molar) was −73%, the “Percent Growth” value (SF-539; SF-539, Log10 Concentration −5.0 Molar) was 55% and the “Percent Growth” value (SF-539; SF-539, Log10 Concentration −6.0 Molar) was 104%. The “Percent Growth” value (SF-539; SF-539, Log10 Concentration −7.0 Molar) was 110%, the “Percent Growth” value (SF-539; SF-539, Log10 Concentration −8.0 Molar) was 108% and the pIC50 (Ovcar3) was 7.00. For the same compound, the IC50 (H2009) was 15.8 µM, the GI50 (UACC-62; Homo sapiens, UACC-62) was 0.0451 µM and the CC50 (UACC-62; Homo sapiens, UACC-62, read-out: LC50) was 11.4 µM. The GI50 (UACC-62; Homo sapiens, UACC-62, read-out: Log10 GI50 (converted)) was 0.0447 µM, the TGI (UACC-62; UACC-62) was 8.97E−7 Molar and the “Percent Growth” value (UACC-62; UACC-62, Log10 Concentration −4.0 Molar) was −94%. For the same compound, the “Percent Growth” value (UACC-62; UACC-62, Log10 Concentration −5.0 Molar) was −47%, the “Percent Growth” value (UACC-62; UACC-62, Log10 Concentration −6.0 Molar) was −2% and the “Percent Growth” value (UACC-62; UACC-62, Log10 Concentration −7.0 Molar) was 35%. For the same compound, the “Percent Growth” value (UACC-62; UACC-62, Log10 Concentration −8.0 Molar) was 79%, the pIC50 (Heb44) was 8.00 and the IC50 (HKE3; first HKE3 line) was 0.0251 µM. The IC50 (HKE3; second HKE3 line) was less than 0.00316 µM, the IC50 (H2122) was 1 µM and the TGI (ACHN) was 2.25E−5 Molar. It also gave a GI50 (ACHN; Homo sapiens) of 2 µM, a CC50 (ACHN; Homo sapiens, read-out: LC50) greater than 100 µM and a GI50 (ACHN; [1]) of 2.63 µM. For the same compound, the “Percent Growth” value (ACHN; Log10 Concentration −4.0 Molar) was −30%, the “Percent Growth” value (ACHN; Log10 Concentration −5.0 Molar) was 10% and the “Percent Growth” value (ACHN; Log10 Concentration −6.0 Molar) was 75%. For the same compound, the “Percent Growth” value (ACHN; Log10 Concentration −7.0 Molar) was 92%, the “Percent Growth” value (ACHN; Log10 Concentration −8.0 Molar) was 99% and the GI50 (MCF7; Homo sapiens, MCF7) was 0.0573 µM. The CC50 (MCF7; Homo sapiens, MCF7, read-out: LC50) was greater than 100 µM, the GI50 (MCF7; Homo sapiens, MCF7, read-out: Log10 GI50 (converted)) was 0.0676 µM and the TGI (MCF7; MCF7) was 2.75E−5 Molar. For the same compound, the “Percent Growth” value (MCF7; MCF7, Log10 Concentration −4.0 Molar) was −10%, the “Percent Growth” value (MCF7; MCF7, Log10 Concentration −5.0 Molar) was 8% and the “Percent Growth” value (MCF7; MCF7, Log10 Concentration −6.0 Molar) was 10%. The “Percent Growth” value (MCF7; MCF7, Log10 Concentration −7.0 Molar) was 45%, the “Percent Growth” value (MCF7; MCF7, Log10 Concentration −8.0 Molar) was 75% and the IC50 (H226B cells; first H226B line) was 0.00251 µM. It also gave an IC50 (H226B cells; second H226B line) of 0.00316 µM, an IC50 (Hct116) of 0.1 µM and a pIC50 (Heb46) of 6.70. It also gave an IC50 (DLD1) of less than 31.6 µM, an IC50 (H1933) of 10 µM and an IC50 (Capanc-1) of 10 µM. For the same compound, the IC50 (H1299 cells) was 3.16 µM, the IC50 (CT116P53) was less than 31.6 µM and the GI50 (KM12; Homo sapiens, KM12) was 18.3 µM. The CC50 (KM12; Homo sapiens, KM12, read-out: LC50) was 9.44 µM, the GI50 (KM12; Homo sapiens, KM12, read-out: Log10 GI50 (converted)) was 18.2 µM and the TGI (KM12; KM12) was 1.15E−6 Molar. For the same compound, the “Percent Growth” value (KM12; KM12, Log10 Concentration −4.0 Molar) was −64%, the “Percent Growth” value (KM12; KM12, Log10 Concentration −5.0 Molar) was 87% and the “Percent Growth” value (KM12; KM12, Log10 Concentration −6.0 Molar) was 102%. The “Percent Growth” value (KM12; KM12, Log10 Concentration −7.0 Molar) was 113% and the “Percent Growth” value (KM12; KM12, Log10 Concentration −8.0 Molar) was 108%.
